The results in this text go back to PMC7827406, “Structure–Activity Relationship (SAR) Study of Spautin-1 to Entail the Discovery of Novel NEK4 Inhibitors” (International Journal of Molecular Sciences, 2021).

Like-named read-outs stand apart in the source and are kept apart here.

Common to all, as to assay: biochemical
Set-up in all cases: Eurofins KinaseProfiler full panel at Km ATP, residual kinase activity (%) relative to DMSO

One assay concerns the target T1, ALK2(h) (Homo sapiens, UniProt Q04771).
T1 construct: gene ACVR1
T1 sequence (Q04771 1-509): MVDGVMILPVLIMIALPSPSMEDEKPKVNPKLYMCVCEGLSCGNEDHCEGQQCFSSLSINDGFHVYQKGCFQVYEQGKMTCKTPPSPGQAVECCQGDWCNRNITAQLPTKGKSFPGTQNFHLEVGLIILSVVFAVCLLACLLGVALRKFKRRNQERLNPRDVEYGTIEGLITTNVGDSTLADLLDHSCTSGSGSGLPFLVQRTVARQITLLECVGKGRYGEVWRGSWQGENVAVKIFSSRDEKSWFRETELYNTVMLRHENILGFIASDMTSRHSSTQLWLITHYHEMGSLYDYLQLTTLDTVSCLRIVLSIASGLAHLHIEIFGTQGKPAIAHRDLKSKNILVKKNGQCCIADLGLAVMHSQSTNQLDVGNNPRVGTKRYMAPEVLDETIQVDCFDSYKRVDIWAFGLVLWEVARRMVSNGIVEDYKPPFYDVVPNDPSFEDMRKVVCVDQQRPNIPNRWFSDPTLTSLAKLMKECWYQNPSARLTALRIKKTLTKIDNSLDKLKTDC
In a few lines: (§1)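 Two 10 µM single-concentration screens were run: a competition-binding screen, in which DNA-tagged kinase bound to immobilized ligands was quantified by qPCR, and a radiometric activity panel at Km ATP. Each is expressed as residual kinase activity (%).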

A further assay addresses MAP4K4(h) (Homo sapiens, UniProt O95819). In short, it runs like this: as §1
The target of another assay is T2, Wee1B(h) (Homo sapiens, UniProt P0C1S8).
T2 construct: gene WEE2
In a few lines:
as §1

Another assay addresses SIK2(h) (Homo sapiens, UniProt Q9H0K1). In a few lines:
as §1

The next assay addresses T3, TSSK2(h) (Homo sapiens, UniProt Q96PF2).
T3 sequence (Q96PF2 1-358): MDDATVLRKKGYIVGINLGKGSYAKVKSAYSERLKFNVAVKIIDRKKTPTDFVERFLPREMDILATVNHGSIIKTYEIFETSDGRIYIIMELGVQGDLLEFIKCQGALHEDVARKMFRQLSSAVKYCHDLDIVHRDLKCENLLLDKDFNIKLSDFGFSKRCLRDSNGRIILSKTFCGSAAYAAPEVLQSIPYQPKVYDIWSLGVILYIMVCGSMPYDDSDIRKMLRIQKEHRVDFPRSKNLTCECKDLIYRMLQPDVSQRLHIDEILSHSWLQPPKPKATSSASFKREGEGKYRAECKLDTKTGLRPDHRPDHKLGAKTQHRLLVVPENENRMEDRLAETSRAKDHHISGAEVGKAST
In a few lines: as §1

Another assay deals with T4, MAK(h) (Homo sapiens, UniProt P20794).
T4 sequence (P20794 1-623): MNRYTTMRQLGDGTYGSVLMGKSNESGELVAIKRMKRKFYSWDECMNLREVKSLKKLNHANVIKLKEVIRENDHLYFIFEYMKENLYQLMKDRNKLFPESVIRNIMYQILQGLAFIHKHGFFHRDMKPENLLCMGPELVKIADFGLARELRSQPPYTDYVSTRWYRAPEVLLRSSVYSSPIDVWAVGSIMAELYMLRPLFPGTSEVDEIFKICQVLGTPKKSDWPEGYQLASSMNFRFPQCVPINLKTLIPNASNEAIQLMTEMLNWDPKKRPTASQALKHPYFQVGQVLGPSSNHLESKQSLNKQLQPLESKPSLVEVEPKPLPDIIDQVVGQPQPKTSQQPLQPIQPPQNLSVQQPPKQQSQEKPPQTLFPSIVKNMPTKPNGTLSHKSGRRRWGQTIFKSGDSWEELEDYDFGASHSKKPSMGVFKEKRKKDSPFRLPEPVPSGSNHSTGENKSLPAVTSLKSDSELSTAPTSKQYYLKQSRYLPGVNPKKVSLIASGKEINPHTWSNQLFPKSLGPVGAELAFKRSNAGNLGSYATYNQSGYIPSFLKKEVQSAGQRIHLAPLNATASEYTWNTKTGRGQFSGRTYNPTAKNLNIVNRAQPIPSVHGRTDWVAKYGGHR
In a few lines: as §1

[1] abbreviates: read-out: Residual activity (%) 5at.
The mark [2] stands for this setting: read-out: Residual activity (%) 5ay.
Where [3] appears, read: read-out: Residual activity (%) 5as.
[4] abbreviates: read-out: Residual activity (%) Spautin-1 5aa.

MAP4K4(h), sequence (O95819 whole entry): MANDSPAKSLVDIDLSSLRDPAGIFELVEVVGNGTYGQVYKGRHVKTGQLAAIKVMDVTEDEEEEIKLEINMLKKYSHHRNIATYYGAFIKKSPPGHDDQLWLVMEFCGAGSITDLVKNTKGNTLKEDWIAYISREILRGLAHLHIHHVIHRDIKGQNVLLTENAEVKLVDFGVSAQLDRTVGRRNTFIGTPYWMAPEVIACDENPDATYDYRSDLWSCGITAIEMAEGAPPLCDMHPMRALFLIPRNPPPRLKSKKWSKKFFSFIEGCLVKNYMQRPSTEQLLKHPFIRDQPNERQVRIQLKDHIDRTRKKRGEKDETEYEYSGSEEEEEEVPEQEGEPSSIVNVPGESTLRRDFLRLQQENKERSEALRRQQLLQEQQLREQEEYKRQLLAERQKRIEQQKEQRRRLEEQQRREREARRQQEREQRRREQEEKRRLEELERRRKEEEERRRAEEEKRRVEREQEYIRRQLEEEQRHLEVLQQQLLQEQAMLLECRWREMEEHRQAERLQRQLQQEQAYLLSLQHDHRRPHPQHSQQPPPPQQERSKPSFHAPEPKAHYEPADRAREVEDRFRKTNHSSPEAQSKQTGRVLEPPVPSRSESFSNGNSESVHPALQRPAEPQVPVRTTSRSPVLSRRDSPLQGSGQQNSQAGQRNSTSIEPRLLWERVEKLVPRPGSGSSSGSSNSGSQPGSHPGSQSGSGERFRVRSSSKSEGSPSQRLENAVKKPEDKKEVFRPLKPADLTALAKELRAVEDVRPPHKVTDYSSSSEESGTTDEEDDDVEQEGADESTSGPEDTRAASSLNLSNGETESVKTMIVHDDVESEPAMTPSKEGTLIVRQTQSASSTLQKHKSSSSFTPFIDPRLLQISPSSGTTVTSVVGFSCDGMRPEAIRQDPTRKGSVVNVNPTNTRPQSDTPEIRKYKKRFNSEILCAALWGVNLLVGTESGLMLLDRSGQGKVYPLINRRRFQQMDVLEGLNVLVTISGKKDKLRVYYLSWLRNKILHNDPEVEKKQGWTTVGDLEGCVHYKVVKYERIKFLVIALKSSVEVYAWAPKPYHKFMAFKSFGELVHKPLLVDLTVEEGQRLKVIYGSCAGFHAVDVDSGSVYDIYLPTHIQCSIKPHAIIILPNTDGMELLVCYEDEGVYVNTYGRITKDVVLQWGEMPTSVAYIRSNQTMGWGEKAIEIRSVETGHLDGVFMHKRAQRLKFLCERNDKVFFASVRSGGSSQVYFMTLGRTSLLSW
T2 sequence (P0C1S8 whole entry): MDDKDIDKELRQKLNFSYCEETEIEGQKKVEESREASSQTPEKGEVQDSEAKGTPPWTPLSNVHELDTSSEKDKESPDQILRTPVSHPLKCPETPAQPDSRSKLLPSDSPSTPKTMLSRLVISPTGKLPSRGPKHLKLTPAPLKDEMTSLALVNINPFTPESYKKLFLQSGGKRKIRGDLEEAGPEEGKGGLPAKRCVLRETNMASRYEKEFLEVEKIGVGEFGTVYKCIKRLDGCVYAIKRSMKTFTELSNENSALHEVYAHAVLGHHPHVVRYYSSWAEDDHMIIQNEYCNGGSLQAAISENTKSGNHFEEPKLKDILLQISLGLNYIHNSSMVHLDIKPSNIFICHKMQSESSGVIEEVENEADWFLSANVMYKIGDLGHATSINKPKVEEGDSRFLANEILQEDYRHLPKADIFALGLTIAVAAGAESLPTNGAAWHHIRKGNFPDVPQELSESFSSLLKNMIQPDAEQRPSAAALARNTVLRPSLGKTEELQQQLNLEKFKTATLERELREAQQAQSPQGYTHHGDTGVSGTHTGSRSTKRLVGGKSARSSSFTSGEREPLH
SIK2(h), sequence (Q9H0K1 whole entry): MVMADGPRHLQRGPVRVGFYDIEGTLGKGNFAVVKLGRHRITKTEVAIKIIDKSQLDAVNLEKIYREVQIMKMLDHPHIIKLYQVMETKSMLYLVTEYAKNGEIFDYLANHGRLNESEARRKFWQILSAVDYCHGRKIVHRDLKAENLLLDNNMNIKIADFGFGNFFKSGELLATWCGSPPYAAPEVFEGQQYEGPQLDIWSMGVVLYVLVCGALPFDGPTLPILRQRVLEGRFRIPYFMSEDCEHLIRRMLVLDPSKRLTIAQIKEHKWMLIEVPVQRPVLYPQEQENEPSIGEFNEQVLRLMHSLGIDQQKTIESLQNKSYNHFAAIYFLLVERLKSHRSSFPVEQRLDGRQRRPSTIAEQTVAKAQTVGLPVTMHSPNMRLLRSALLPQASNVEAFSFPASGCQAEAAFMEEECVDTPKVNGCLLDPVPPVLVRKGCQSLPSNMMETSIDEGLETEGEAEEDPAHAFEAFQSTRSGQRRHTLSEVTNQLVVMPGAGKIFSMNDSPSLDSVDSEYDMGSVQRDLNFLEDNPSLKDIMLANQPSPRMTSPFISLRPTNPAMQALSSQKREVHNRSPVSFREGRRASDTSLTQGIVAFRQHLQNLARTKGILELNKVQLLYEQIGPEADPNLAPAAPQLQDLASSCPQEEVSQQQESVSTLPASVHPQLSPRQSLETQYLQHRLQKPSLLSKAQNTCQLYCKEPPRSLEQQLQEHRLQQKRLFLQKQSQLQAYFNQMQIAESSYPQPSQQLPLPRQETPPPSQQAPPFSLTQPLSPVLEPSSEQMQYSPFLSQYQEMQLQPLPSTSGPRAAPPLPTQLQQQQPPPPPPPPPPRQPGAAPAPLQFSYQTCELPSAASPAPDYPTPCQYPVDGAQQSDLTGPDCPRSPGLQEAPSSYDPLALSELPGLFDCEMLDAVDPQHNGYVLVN

Turning to `Fc1ccc2ncnc(NCCc3ccc(Cl)cc3)c2c1` [5at, N-[2-(4-Chlorophenyl)Ethyl]-6-Fluoro-4-Quinazolinamine], the remaining activity at 10 µM was 58% on ALK2(h) (setting [1]); 92% on MAP4K4(h) (setting [1]); 100% at Wee1B(h) (setting [1]); 84% on SIK2(h) (setting [1]); 103% on TSSK2(h) (setting [1]); 76% at MAK(h) (setting [1]).

As for `COc1ccc2ncnc(Nc3cccc(F)c3)c2c1` [5ay, N-(3-Fluorophenyl)-6-Methoxy-4-Quinazolinamine], the remaining activity at 10 µM on ALK2(h) (setting [2]) was 50%; on MAP4K4(h) (setting [2]), 73%; at Wee1B(h) (setting [2]), 106%; on SIK2(h) (setting [2]), 65%; at TSSK2(h) (setting [2]), 103%; at MAK(h) (setting [2]) it was 74%.

As to `Fc1ccc(CCNc2ncnc3ccc(F)cc23)cc1` [5as, 6-Fluoro-N-[2-(4-Fluorophenyl)Ethyl]-4-Quinazolinamine], the remaining activity at 10 µM at ALK2(h) (setting [3]) is 45%; on MAP4K4(h) (setting [3]) it was 75%; on Wee1B(h) (setting [3]), 99%; at SIK2(h) (setting [3]), 97%; at TSSK2(h) (setting [3]), 97%; at MAK(h) (setting [3]) it was 77%.

Regarding `Fc1ccc(CNc2ncnc3ccc(F)cc23)cc1` [5aa, 6-Fluoro-N-(4-fluorobenzyl)-4-Quinazolinamine], the remaining activity at 10 µM is 60% at ALK2(h) (setting [4]); 75% on MAP4K4(h) (setting [4]); 95% on Wee1B(h) (setting [4]); 91% on SIK2(h) (setting [4]); 101% on TSSK2(h) (setting [4]); 89% on MAK(h) (setting [4]).
